The NIST ThermoML archive (doi:10.1016/j.jct.2019.01.007)
Where “and” joins values, the source holds several entries; their conditions need not be identical. Identical values can stand only once.

Details: Liquid

CCCCCCCCCC(=O)OC [methyl decanoate]
Details | vapor or sublimation pressure
273.35 K | 0.0004731 kPa
273.84 K | 0.0004984 kPa
274.32 K | 0.0005246 kPa
274.8 K | 0.0005538 kPa
275.29 K | 0.0005879 kPa
275.77 K | 0.0006152 kPa
276.26 K | 0.0006487 kPa
276.74 K | 0.0006849 kPa
277.23 K | 0.0007225 kPa
277.71 K | 0.0007597 kPa
278.2 K | 0.0008032 kPa
278.69 K | 0.0008442 kPa
279.18 K | 0.0008873 kPa
279.66 K | 0.0009341 kPa
280.15 K | 0.0009819 kPa
280.64 K | 0.001035 kPa
281.12 K | 0.001093 kPa
281.47 K | 0.001128 kPa
282.96 K | 0.001314 kPa
283.48 K | 0.001386 kPa
284.46 K | 0.001532 kPa
284.96 K | 0.001613 kPa
285.43 K | 0.001692 kPa
285.64 K | 0.00173 kPa
285.74 K | 0.001743 kPa
285.95 K | 0.001776 kPa
286.44 K | 0.001869 kPa
286.95 K | 0.001967 kPa
287.44 K | 0.002063 kPa
287.94 K | 0.002166 kPa and 0.002174 kPa
288.93 K | 0.002392 kPa
289.31 K | 0.002487 kPa
289.43 K | 0.002508 kPa
290.42 K | 0.002759 kPa
290.53 K | 0.002791 kPa
290.92 K | 0.002894 kPa
291.81 K | 0.003154 kPa
291.92 K | 0.003182 kPa
292.42 K | 0.003341 kPa
292.9 K | 0.003501 kPa
293.41 K | 0.00367 kPa
293.91 K | 0.003845 kPa
294.3 K | 0.00399 kPa
294.9 K | 0.004224 kPa
295.4 K | 0.004415 kPa
295.51 K | 0.004442 kPa
295.9 K | 0.004625 kPa
296.39 K | 0.004836 kPa
296.77 K | 0.004989 kPa
297.39 K | 0.005295 kPa
297.89 K | 0.005534 kPa
297.98 K | 0.005566 kPa
298.88 K | 0.006057 kPa
299.38 K | 0.006339 kPa
300.37 K | 0.00692 kPa
300.46 K | 0.006953 kPa
300.87 K | 0.007243 kPa
301.87 K | 0.007893 kPa
302.37 K | 0.008238 kPa
302.84 K | 0.008517 kPa
302.94 K | 0.008627 kPa
303.36 K | 0.008981 kPa
303.76 K | 0.009236 kPa
303.81 K | 0.0093 kPa
303.82 K | 0.009286 kPa and 0.009287 kPa
303.86 K | 0.00937 kPa
304.85 K | 0.0102 kPa and 0.01021 kPa
305.24 K | 0.01047 kPa
305.26 K | 0.01052 kPa
305.29 K | 0.01057 kPa
305.35 K | 0.01065 kPa
305.42 K | 0.01069 kPa
307.68 K | 0.01286 kPa
308.6 K | 0.01393 kPa
308.64 K | 0.014 kPa
310.04 K | 0.0157 kPa
310.06 K | 0.01581 kPa
310.09 K | 0.0158 kPa
310.1 K | 0.01574 kPa
310.14 K | 0.01575 kPa
312.52 K | 0.01912 kPa
313.44 K | 0.02065 kPa
313.47 K | 0.0207 kPa
314.89 K | 0.02316 kPa
314.94 K | 0.0232 kPa
317.35 K | 0.02798 kPa and 0.02794 kPa
317.42 K | 0.02817 kPa
318.24 K | 0.0299 kPa
318.28 K | 0.03012 kPa
319.72 K | 0.0337 kPa
319.78 K | 0.03379 kPa and 0.03376 kPa
322.16 K | 0.04037 kPa
322.2 K | 0.0406 kPa
322.27 K | 0.04082 kPa
323.11 K | 0.04344 kPa
324.57 K | 0.04813 kPa
324.61 K | 0.04845 kPa
324.63 K | 0.04869 kPa
327.04 K | 0.05787 kPa
327.09 K | 0.05806 kPa
327.93 K | 0.06147 kPa
327.97 K | 0.06194 kPa
329.38 K | 0.06819 kPa
329.43 K | 0.06843 kPa
329.46 K | 0.06916 kPa
329.51 K | 0.0691 kPa
330.86 K | 0.07578 kPa
331.89 K | 0.08137 kPa
331.9 K | 0.08129 kPa
331.96 K | 0.08174 kPa
332.78 K | 0.08635 kPa
334.24 K | 0.09568 kPa
334.28 K | 0.09573 kPa
334.33 K | 0.09658 kPa and 0.09631 kPa
334.38 K | 0.09672 kPa
335.68 K | 0.1054 kPa
336.74 K | 0.1133 kPa
336.79 K | 0.1135 kPa
337.62 K | 0.1198 kPa
339.09 K | 0.1322 kPa
339.17 K | 0.1333 kPa
339.24 K | 0.1341 kPa
340.51 K | 0.1449 kPa
340.55 K | 0.1456 kPa
341.5 K | 0.1546 kPa
341.58 K | 0.1555 kPa
341.63 K | 0.1564 kPa
341.66 K | 0.157 kPa
348.04 K | 0.2325 kPa
352.92 K | 0.3135 kPa
357.8 K | 0.4166 kPa
362.67 K | 0.5493 kPa
367.55 K | 0.7207 kPa
372.43 K | 0.9271 kPa
374.86 K | 1.054 kPa
377.3 K | 1.195 kPa
